What was measured:
[1] = tested on: rat HSCs; experiment: Microarray of culture-induced activation of HSCs; type: cell-based; details: 3 days culture on plastic, 10 nM 1,25(OH)2D3
Method: VDR Signaling Suppresses TGFβ-induced Pro-Fibrotic Genes. (A) Heat map comparing 519 differentially expressed genes in freshly isolated rat HSCs (quiescent HSCs, Q-HSCs), activated HSCs (A-HSCs, 3 days culture on plastic) and cells cultures in the presence of 10 nM 1,25(OH)2D3 (A-HSCs+1,25(OH)2D3). Euclidean clustering of both rows and columns using log2 transformed microarray expression data, n=2 per treatment group. […] Data represents the mean±SEM of at least three independent experiments performed in triplicate. Asterisks denote statistically significant differences (Student's unpaired t-test, *p<0.05, **p<0.01). HSCs were isolated from 10-week old male C57BL/6J mice and Wistar rats by in situ pronase, collagenase perfusion and single-step Histogenz gradient as previously reported (Hendriks et al., 1985; Knook et al., 1982). Isolated HSCs were cultured in DMEM (Mediatech) containing 20% FBS (Hyclone) on 6-well plates for 40 hours prior to end-point assays. Total RNA from primary rat or mouse HSCs was isolated using the RNeasy mini kit (Qiagen) according to standard protocols. RNA integrity and quality was assessed using the Agilent Bioanalyzer and prepared for hybridization to Illumina rat or mouse gene expression arrays according to standard Illumina protocols. Feature extraction was performed using the Illumina GenomeStudio software. […]

[2] = tested on: C57BL/6J mice; experiment: CCl4 model of liver injury and fibrosis; type: in vivo, mouse
Method: (§1) LX-2 cells, a generous gift from Professor Scott Friedman, Mount Sinai School of Medicine, New York, N.Y., were cultured as described previously (Xu et al., 2005). […] For luciferase assays, DNA transfections were performed using Fugene 6 (Roche) following the manufacturer's instructions. […] RT-qPCR, total RNA was purified following TRIzol extraction and treated with DNaseI (Invitrogen). cDNA synthesis was carried out with iScript RT Supermix (Biorad). Quantitative PCR was performed in technical triplicates using SYBR Green reagent (Biorad). The relative standard curve method was used for quantitation (Biorad). Expression levels were calculated by normalization to either Gapdh (mouse) or U36B4 (human) quantities.
8 week-old male C57BL/6J mice were IP injected with 0.5 ml/kg body weight CCl4 (1:50 v/v in corn oil from Sigma) or vehicle (DMSO in corn oil) three times a week for 4 weeks. […] The animals were terminated 72 hours after the final CCl4 injection and whole livers and serum were collected for histological, cytological, biochemical and molecular analyses.
5 μm sections of formalin-fixed liver were stained following standard H&E and Sirius Red methods and reviewed by a pathologist who was blinded to the experimental conditions. Fibrosis was scored using the Ishak modified histological activity index (HAI) scoring system. Fibrosis was also quantified using Image J software on 10 non-contiguous Sirius Red stained sections. All images were obtained using a high-resolution Leica DFC420 digital camera mounted on an Olympus microscope equipped with ×4/0.13, ×10/0.30, ×20/0.50 and ×40/0.75 UplanFL N plan objective lenses and processed with the Leica Application Suite. Hepatic hydroxyproline content was measured using a commercial colorimetric assay from Biovision (K555-100).

[3] = tested on: primary mouse HSCs; experiment: Fibrotic gene expression in primary mouse HSCs; type: cell-based; details: primary mouse HSCs (data not shown)
Method: HSCs were isolated from 10-week old male C57BL/6J mice and Wistar rats by in situ pronase, collagenase perfusion and single-step Histogenz gradient as previously reported (Hendriks et al., 1985; Knook et al., 1982). Isolated HSCs were cultured in DMEM (Mediatech) containing 20% FBS (Hyclone) on 6-well plates for 40 hours prior to end-point assays.
as §1

[4] = tested on: LX-2 cells; experiment: TGFβ1-induced fibrotic gene expression (RT-qPCR, siRNA) in LX-2 cells; type: cell-based, human
Method: FIGS. 4A-4C. VDR Signaling Suppresses TGFβ-induced Pro-Fibrotic Genes. (A) Heat map comparing 519 differentially expressed genes in freshly isolated rat HSCs (quiescent HSCs, Q-HSCs), activated HSCs (A-HSCs, 3 days culture on plastic) and cells cultures in the presence of 10 nM 1,25(OH)2D3 (A-HSCs+1,25(OH)2D3). Euclidean clustering of both rows and columns using log2 transformed microarray expression data, n=2 per treatment group. (B) Heat map of fold expression change of genes involved in fibrosis in primary rat HSCs treated with TGFβ1 (1 ng/ml) and TGFβ1 plus 1,25(OH)2D3 (100 nM) for 24 hours, n=2 per treatment group. […] Data represents the mean±SEM of at least three independent experiments performed in triplicate. Asterisks denote statistically significant differences (Student's unpaired t-test, *p<0.05, **p<0.01).
LX-2 cells, a generous gift from Professor Scott Friedman, Mount Sinai School of Medicine, New York, N.Y., were cultured as described previously (Xu et al., 2005). […] For luciferase assays, DNA transfections were performed using Fugene 6 (Roche) following the manufacturer's instructions. […] Quantitative PCR was performed in technical triplicates using SYBR Green reagent (Biorad). The relative standard curve method was used for quantitation (Biorad). Expression levels were calculated by normalization to either Gapdh (mouse) or U36B4 (human) quantities. […]

[5] = tested on: CBP, p300 and acetylated histone H3; experiment: ChIP-qPCR of CBP, p300 and acetylated histone H3 at COL1A1 regulatory region in LX-2 cells; type: cell-based, human; details: co-treated with calcipotriol 100 nM and TGFβ1 1 ng/ml
Description: FIGS. 12A-12B. Coactivator/Corepressor Recruitment and Histone H3 Acetylation Status at Regulatory Regions of Fibrotic Genes Co-occupied by VDR and SMAD. […] The level of occupancy is expressed relative to input chromatin in LX-2 cells treated with corresponding conditions. Data represents the mean+/−SEM of at least three independent experiments performed in triplicate. Asterisks denote statistically significant differences (Student's t test, *p<0.05). […] The level of occupancy is expressed relative to input chromatin in LX-2 cells treated with corresponding conditions.
Cells were then harvested for ChIP assay. The experimental procedure for ChIP was as previously described (Barish et al., 2010). Briefly, after fixation, nuclei from LX-2 cells were isolated, lysed and sheared with a Diagenode Bioruptor to yield DNA fragment sizes of 200-1000 base pairs followed by immunoprecipitation using antibodies listed below: normal rabbit IgG (Santa Cruz, sc-2027), VDR (Santa Cruz, sc-1008), SMAD3 (Abcam, ab28379) and histone H3 (Abcam, ab1791). For ChIP-Re-ChIP, after first ChIP, the immunoprecipitated DNA-protein complex was eluted from beads using 10 mM DTT, diluted 100-fold then re-immunoprecipitated with a second antibody, re-ChIP.

SMILES	culture-induced activation of HSCs (transcriptome) [1]	fibrosis (Sirius red staining, hepatic hydroxyproline content, histological fibrotic scoring) ([2]; CCl4 0.5 ml/kg IP 3 times per week, 4 weeks, calcipotriol 20 μg/kg oral gavage co-treatment)	serum calcium concentration ([2]; calcipotriol 20 μg/kg oral gavage, 4 weeks)	down-regulation of fibrotic marker genes Col1a1, Tgfb1 and Timp1 ([2]; hepatic gene expression, RT-qPCR, CCl4/calcipotriol co-treated vs CCl4)	fibrogenic response in liver ([2]; pre-treated with calcipotriol for 5 weeks prior to CCl4/calcipotriol co-treatment)	fibrotic gene expression [3]	fibrotic gene expression [4]	calcipotriol-mediated repression of TGFβ1 induced gene expression after loss of VDR ([4]; siVDR RNAi, Cal 100 nM, TGFβ1 1 ng/ml, 16 hours)	TGFβ1 induced recruitment of p300 and CBP and histone H3 hyperacetylation at COL1A1 regulatory region [5]
C=C1/C(=C\C=C2/CCC[C@]3(C)C([C@H](C)CCCC(C)(C)O)CC[C@@H]23)C[C@@H](O)C[C@@H]1O (stereo partly drawn) [1,25(OH)2D3, 1α,25 dihydroxyvitamin D3]	attenuated								
C=C1/C(=C\C=C2/CCC[C@]3(C)[C@@H]([C@H](C)/C=C/[C@@H](O)C4CC4)CC[C@@H]23)C[C@@H](O)C[C@@H]1O [calcipotriol, 1α,24-(OH)2-24-cyclopropyl-D3]		significant reduction in fibrosis	not significantly altered	50-70%	nearly completely abrogated	potently repressed	potently repressed	abolished	lost
